Data from patent US9631001B2, “Peptide antagonists of the vasopressin-2 receptor” (COMMISSARIAT A L'ENERGIE ATOMIQUE ET AUX ENERGIES …, priority 2012, dated 2017).

Key:
V1bR = target: T1, V1bR (Homo sapiens, UniProt P47901); experiment: 3H-AVP competition binding on V1bR membranes; details: toxin at 1 μM
T1 sequence (P47901 1-424): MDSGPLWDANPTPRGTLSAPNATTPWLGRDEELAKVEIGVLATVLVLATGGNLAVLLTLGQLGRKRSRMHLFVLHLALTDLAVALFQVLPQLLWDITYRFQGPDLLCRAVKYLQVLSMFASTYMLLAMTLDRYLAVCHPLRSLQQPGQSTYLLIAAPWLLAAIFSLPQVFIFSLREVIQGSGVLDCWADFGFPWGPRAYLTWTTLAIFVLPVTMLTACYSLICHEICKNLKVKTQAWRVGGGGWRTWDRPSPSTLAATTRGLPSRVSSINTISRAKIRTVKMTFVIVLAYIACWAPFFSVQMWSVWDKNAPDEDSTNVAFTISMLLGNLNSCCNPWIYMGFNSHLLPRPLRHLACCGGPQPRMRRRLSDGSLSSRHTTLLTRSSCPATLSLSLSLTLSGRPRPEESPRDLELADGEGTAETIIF
Method: (§1) Membranes from cells expressing vasopressin receptors were purchased from […] (Courtaboeuf, France). Binding experiments were performed with ^3H-AVP ([…], Courtaboeuf, France) in 96-well plates. Reaction mixtures contained 50 mM Tris-HCl, pH 7.4, 10 mM MgCl2 and 1 g/L BSA in a final volume of 100 μL. Plates were incubated for 3 h at room temperature. Binding reactions were stopped by filtration through a GF/C filter pre-soaked in 0.5% polyethyleneimine on a cell harvester ([…], Courtaboeuf, France) and plates were dried. Ultimagold O (25 μl; […]) was added to each well and samples were counted using a TopCount counter ([…], Courtaboeuf, France) (Counting yield of 55%). […] A one-site inhibition mass action curve was fitted to inhibition binding data using Kaleidagraph (SYNERGY SOFTWARE, Reading, Pa., USA). IC50 values were converted to Ki for competition experiments using the Cheng-Prusoff equation (Cheng et al., Biochem. Pharmacol., 1973, 22, 3099-3108).

hV2-Rluc receptor = target: T2, hV2-Rluc receptor (Homo sapiens, UniProt P30518); experiment: β-arrestin-1-YFP mobilization (BRET) to V2-Rluc in tsA cells; assay type: cell-based
T2 construct: expressed in transfected cells; host or cells: tsA cells (HEK293 derivative), transiently transfected
Method: 2.5×10^6 tsA cells, a transformed human kidney (HEK293) cell line stably expressing an SV40 temperature sensitive T antigen (ECACC), transiently transfected with 150 ng of pRK5 expression plasmid for hV2Rluc ([sequence] #556104, BD BIOSCIENCE; Terrillon et al., Mol. Endocrinol., 2003, 17, 677-691) and with 1 μg of an expression plasmid for β-arrestin-1-YFP ((β-arrestin cloned into pEYFP-N1 (CLONTECH); Scott et al., J. Biol. Chem., 2002, 277, 3552-3559) were seeded in 6-well plates. 48 h after transfection, cells were washed with KREBS buffer containing 146 mM NaCl, 4.2 mM KCl, 0.5 mM MgCl2, 1 mM CaCl2, 10 mM HEPES pH 7.4, 1 mg/ml glucose and resuspended in 1 ml of this buffer. Bioluminescence Resonance Energy Transfer (BRET™) measurements between the V2-Rluc and β-arrestin-1-YFP were performed in 96-well plates with a final volume of 50 μl containing 30 μl of cell suspension (75,000 cells), 10 μl of KREBS buffer (control condition) or the mix of ligands containing either increasing concentrations of vasopressin (stimulated control condition) or in the presence of increasing concentrations of toxin (stimulated condition with inhibitor).

V1aR = V1aR (Homo sapiens, UniProt P37288); experiment: 3H-AVP competition binding on V1aR membranes; details: toxin at 1 μM
Method: as §1

V1aR, sequence (P37288 whole entry): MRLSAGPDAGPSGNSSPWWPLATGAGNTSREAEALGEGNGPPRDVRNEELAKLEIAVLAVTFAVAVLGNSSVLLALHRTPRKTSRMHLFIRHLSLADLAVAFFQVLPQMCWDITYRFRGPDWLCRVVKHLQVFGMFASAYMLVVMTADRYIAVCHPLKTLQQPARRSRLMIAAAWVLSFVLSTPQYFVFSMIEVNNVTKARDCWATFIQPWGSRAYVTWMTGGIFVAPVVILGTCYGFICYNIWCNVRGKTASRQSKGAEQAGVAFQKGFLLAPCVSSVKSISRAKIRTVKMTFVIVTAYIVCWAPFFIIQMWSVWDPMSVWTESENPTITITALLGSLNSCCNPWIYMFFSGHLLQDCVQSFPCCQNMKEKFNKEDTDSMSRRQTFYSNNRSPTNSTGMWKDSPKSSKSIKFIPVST
T2 sequence (P30518 whole entry): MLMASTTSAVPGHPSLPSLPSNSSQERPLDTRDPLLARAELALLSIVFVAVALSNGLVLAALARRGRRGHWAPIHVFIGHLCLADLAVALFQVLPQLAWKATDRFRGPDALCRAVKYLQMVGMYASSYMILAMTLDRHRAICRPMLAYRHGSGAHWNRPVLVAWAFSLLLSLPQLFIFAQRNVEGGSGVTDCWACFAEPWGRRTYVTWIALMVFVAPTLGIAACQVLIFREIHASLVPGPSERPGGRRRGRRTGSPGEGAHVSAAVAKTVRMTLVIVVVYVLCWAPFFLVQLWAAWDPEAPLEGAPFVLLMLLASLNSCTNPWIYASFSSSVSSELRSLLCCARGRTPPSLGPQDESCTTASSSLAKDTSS

CC[C@H](C)[C@@H]1NC(=O)[C@H]([C@@H](C)O)NC(=O)[C@H](CO)NC(=O)[C@H](Cc2ccccc2)NC(=O)[C@H](CCCNC(=N)N)NC(=O)[C@H](CC(N)=O)NC(=O)[C@H](C)NC(=O)[C@H](CC(N)=O)NC(=O)CNC(=O)[C@H](CCCCN)NC(=O)[C@@H]2CSSC[C@@H]3NC(=O)[C@@H]4CCCN4C(=O)CNC(=O)[C@@H]4CCCN4C(=O)[C@H](CCCCN)NC(=O)[C@H](C(C)C)NC(=O)[C@@H]4CCCN4C(=O)[C@H](CC(C)C)NC(=O)[C@H](CC(N)=O)NC(=O)[C@@H](NC(=O)[C@H](Cc4ccccc4)NC(=O)[C@H](CO)NC(=O)[C@@H]4CCCN4C(=O)[C@@H](N)CCCNC(=N)N)CSSC[C@@H](C(=O)N[C@H](C(=O)NCC(=O)O)C(C)C)NC(=O)[C@H]([C@@H](C)O)NC(=O)[C@H](CCCNC(=N)N)NC(=O)[C@H](CCCNC(=N)N)NC(=O)[C@H](CSSC[C@H](NC(=O)[C@H](CCCCN)NC(=O)[C@H](CC(N)=O)NC(=O)[C@H]([C@@H](C)O)NC(=O)[C@H](CCCCN)NC(=O)[C@H](CCC(N)=O)NC(=O)[C@H](CO)NC(=O)[C@H](Cc4ccc(O)cc4)NC(=O)[C@H](Cc4ccc(O)cc4)NC(=O)[C@H](Cc4ccccc4)NC(=O)[C@H](C)NC(=O)[C@H](CO)NC(=O)[C@H](Cc4ccccc4)NC(=O)[C@H](Cc4ccccc4)NC(=O)CNC(=O)[C@H](CC(N)=O)NC3=O)C(=O)N[C@@H](Cc3c[nH]cn3)C(=O)N[C@@H](CO)C(=O)N[C@@H](Cc3ccccc3)C(=O)N[C@@H]([C@@H](C)O)C(=O)N[C@@H](Cc3ccc(O)cc3)C(=O)NCC(=O)NCC(=O)N2)NC(=O)[C@H](CCCCN)NC(=O)[C@H](CCC(=O)O)NC1=O [U-Da2a]
inhibition of 3H-AVP binding to V1bR (V1bR): did not inhibit | Kb (hV2-Rluc receptor): 0.1 µM | inhibition of 3H-AVP binding to V1aR (V1aR): did not inhibit
